Laboratory results from paper PMC4161151 (Journal of Medicinal Chemistry, 2014).
≈ marks a conversion by molar mass, not a printed value. Where “and” joins values, the source holds several entries; their conditions need not be identical. Equal values may be shown once. Read-outs that look alike come from different tables or passages of the source.

Tests used:
MDCK-MDR1 cells = assay: MDCK-MDR1 permeability; settings: percent transported from the optical to basal side
[1] = Kinetic solubility, 96-well plate assay; type: physicochemical; settings: for solubility at 90 min: phosphate buffer
[2] = Parallel artificial membrane permeability assay; type: in vitro ADME; settings: 4 h; for PAMPA pH 5.5, percent transported: pH 5.5, 10 μM; for PAMPA pH 7.4, percent transported: pH 7.4, 10 μM
κ opioid receptor [3] = target: T1, κ opioid receptor (Homo sapiens, UniProt P41145); settings: for δ/κ: selectivity for κ relative to δ; for δ/κ / μ/κ: ratio of Ke values; for μ/κ: selectivity for κ relative to μ; for Ke κ, U69,593: cloned human κ receptor, mean (SE), at least three independent experiments
T1 sequence (P41145 whole entry): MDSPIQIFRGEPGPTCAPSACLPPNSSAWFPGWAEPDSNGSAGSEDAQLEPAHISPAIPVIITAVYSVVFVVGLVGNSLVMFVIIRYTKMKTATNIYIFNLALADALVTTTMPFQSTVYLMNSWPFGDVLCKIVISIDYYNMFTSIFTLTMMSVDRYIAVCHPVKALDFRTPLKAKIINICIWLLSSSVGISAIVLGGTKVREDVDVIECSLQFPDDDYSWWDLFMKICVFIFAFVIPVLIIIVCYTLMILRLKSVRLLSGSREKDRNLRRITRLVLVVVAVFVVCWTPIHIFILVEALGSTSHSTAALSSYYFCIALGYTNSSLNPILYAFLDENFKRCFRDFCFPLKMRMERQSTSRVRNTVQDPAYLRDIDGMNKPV

μ opioid receptor [4] = target: T2, μ opioid receptor (Homo sapiens, UniProt P35372); assay: biochemical
T2 sequence (P35372 whole entry): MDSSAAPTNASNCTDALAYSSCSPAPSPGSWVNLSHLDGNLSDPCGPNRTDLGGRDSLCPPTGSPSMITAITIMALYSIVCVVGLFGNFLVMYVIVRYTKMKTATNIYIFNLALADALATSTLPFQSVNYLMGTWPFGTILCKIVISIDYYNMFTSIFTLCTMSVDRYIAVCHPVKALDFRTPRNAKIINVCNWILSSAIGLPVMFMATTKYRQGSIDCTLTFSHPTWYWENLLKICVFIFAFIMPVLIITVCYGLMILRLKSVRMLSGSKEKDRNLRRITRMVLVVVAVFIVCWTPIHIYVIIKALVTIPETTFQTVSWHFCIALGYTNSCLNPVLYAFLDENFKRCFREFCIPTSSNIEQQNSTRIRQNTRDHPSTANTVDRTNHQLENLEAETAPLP

δ opioid receptor [5] = target: T3, δ opioid receptor (Homo sapiens, UniProt P41143); assay: biochemical
T3 sequence (P41143 whole entry): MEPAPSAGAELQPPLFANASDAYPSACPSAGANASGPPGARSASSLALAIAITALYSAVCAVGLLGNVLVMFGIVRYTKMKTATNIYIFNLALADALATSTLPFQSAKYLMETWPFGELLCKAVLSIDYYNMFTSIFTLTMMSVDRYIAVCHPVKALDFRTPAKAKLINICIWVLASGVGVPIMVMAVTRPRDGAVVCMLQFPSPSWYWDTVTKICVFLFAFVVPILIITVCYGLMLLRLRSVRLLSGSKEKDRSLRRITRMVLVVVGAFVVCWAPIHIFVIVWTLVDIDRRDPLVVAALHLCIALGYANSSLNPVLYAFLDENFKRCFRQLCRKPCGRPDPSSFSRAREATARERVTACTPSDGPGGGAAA

κ opioid receptor [6] = target: T1, κ opioid receptor; assay: biochemical
hERG channel = hERG channel (Homo sapiens, UniProt Q12809); assay: hERG [3H]astemizole radioligand displacement assay
hERG channel, sequence (Q12809 whole entry): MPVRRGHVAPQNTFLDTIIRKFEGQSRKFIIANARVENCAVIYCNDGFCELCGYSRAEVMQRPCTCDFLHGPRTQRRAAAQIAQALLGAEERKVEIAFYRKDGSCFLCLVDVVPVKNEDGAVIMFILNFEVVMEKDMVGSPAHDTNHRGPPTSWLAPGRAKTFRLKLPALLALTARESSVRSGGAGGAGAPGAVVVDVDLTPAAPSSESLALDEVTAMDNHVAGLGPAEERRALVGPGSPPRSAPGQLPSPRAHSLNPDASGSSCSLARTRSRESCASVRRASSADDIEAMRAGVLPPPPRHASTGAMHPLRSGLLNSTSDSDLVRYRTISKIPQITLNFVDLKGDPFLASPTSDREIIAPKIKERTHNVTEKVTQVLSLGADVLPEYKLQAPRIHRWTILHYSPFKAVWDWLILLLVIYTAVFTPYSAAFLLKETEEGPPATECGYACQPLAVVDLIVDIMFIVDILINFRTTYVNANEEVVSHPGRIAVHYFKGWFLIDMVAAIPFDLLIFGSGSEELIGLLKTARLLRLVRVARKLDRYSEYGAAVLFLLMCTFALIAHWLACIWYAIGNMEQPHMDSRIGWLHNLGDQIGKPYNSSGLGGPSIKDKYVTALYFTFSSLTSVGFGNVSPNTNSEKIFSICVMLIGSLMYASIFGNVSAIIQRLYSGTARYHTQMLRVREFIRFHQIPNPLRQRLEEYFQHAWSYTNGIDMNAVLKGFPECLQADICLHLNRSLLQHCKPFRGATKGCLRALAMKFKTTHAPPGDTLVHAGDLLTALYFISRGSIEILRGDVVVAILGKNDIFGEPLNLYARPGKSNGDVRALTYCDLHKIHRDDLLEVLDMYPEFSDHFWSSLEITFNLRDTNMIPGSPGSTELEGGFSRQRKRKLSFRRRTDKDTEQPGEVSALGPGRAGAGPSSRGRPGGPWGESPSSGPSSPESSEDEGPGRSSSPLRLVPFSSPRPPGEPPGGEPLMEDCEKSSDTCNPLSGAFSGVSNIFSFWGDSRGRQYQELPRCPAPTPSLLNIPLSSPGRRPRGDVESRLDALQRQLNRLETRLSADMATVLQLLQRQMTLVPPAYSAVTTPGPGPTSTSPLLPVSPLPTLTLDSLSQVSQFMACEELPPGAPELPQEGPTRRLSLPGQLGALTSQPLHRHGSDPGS

δ opioid receptor [7] = settings: read-out: Ki δ; cited from earlier work
μ opioid receptor [8] = target: T2, μ opioid receptor; settings: cloned human μ receptor; mean (SE), at least three independent experiments
δ opioid receptor [9] = target: T3, δ opioid receptor; settings: for behaviour at the δ receptor: δ opioid receptor [35S]GTPγS assay, result in words; for Ke δ, DPDPE: cloned human δ receptor
[10] = mean (SE), at least three independent experiments

Molecule	S9 stability (% of parent) (S9 stability)	plasma stability (% of parent) (Plasma stability)	MDCK, percent transported (MDCK-MDR1 cells)	δ/κ (κ opioid receptor [3])	μ/κ (κ opioid receptor [3])	Ke μ, DAMGO (μ opioid receptor [8])	Ke κ, U69,593 (κ opioid receptor [3])	Ke δ, DPDPE (δ opioid receptor [9]; [10])	other results
CC(C)[C@@H](CN1CC[C@@](C)(c2ccccc2)[C@@H](C)C1)NC(=O)[C@H]1Cc2ccc(O)cc2CN1 [Compound 4, (3R)-N-[(1S)-1-{[(3R,4R)-3,4-Dimethyl-4-phenylpiperidin-1-yl]methyl}-2-methylpropyl]-7-hydroxy-1,2,3,4-tetrahydroisoquinoline-3-carboxamide]	82.0 % of parent	67.0 % of parent	27%	–	–	–	–	–	–
CC(C)[C@@H](CN1CC[C@@](C)(c2cccc(O)c2)[C@@H](C)C1)NC(=O)[C@H]1Cc2ccc(C(N)=O)cc2CN1 [Compound 13, (3R)-N^3-[(1S)-1-{[(3R,4R)-4-(3-Hydroxyphenyl)-3,4-dimethylpiperidin-1-yl]methyl}-2-methylpropyl]-1,2,3,4-tetrahydroisoquinoline-3,7-dicarboxamide]	91.5 % of parent	84.7 % of parent	17%	6550	355	–	–	–	solubility at pH 7.4 ([1]; pH 7.4): > 20%; solubility at 90 min ([1]; pH 3): 77 µM (≈ 37.9 µg/mL); solubility at 90 min ([1]; pH 7.4): 38 µM (≈ 18.7 µg/mL); PAMPA pH 5.5, percent transported [2]: 39.1%; PAMPA pH 7.4, percent transported [2]: 28.3%; Kb (μ opioid receptor [4]): 7.09 ± 2.58 nM; Kb (δ opioid receptor [5]): 131 ± 23 nM; Kb (κ opioid receptor [6]): 0.02 ± 0.005 nM; Ki (hERG channel): > 10000 nM
CC(C)[C@@H](CN1CC[C@@](C)(c2cccc(C(N)=O)c2)[C@@H](C)C1)NC(=O)[C@H]1Cc2ccc(C(N)=O)cc2CN1 [Compound 14, (3R)-N^3-[(1S)-1-{[(3R,4R)-4-(3-Carbamoylphenyl)-3,4-dimethylpiperidin-1-yl]methyl}-2-methylpropyl]-1,2,3,4-tetrahydroisoquinoline-3,7-dicarboxamide]	90.9 % of parent	55.3 % of parent	14%	4700	230	–	–	–	solubility at pH 7.4 ([1]; pH 7.4): > 20%; solubility at 90 min ([1]; pH 3): 100 µM (≈ 52 µg/mL); solubility at 90 min ([1]; pH 7.4): 81 µM (≈ 42.1 µg/mL); PAMPA pH 5.5, percent transported [2]: 36.4%; PAMPA pH 7.4, percent transported [2]: 32.2%; Kb (μ opioid receptor [4]): 25.3 ± 7.89 nM; Kb (δ opioid receptor [5]): 517 ± 52 nM; Kb (κ opioid receptor [6]): 0.11 ± 0.02 nM; Ki (hERG channel): > 10000 nM
CC(C)[C@@H](CN1CC[C@@](C)(c2cccc(O)c2)[C@@H](C)C1)NC(=O)[C@H]1Cc2ccc(O)cc2CN1 [JDTic, (3R)-1,2,3,4-tetrahydro-7-hydroxy-N-[(1S)-1-[[(3R,4R)-4-(3-hydroxyphenyl)-3,4-dimethyl-1-piperidinyl]methyl]-2-methylpropyl]-3-isoquinolinecarboxamide, reference compound]	76 % of parent	97 % of parent	11%	–	–	–	–	–	–
C[C@H]1CN(CC[C@H](O)C2CCCCC2)CC[C@@]1(C)c1cccc(O)c1 [LY255582]	–	–	–	–	–	–	–	–	Ki (δ opioid receptor [7]): 4.8 nM
(3R)-7-Fluoro-N-[(1S)-1-{[(3R,4R)-4-(3-Fluorophenyl)-3,4-dimethylpiperidin-1-yl]methyl}-2-methylpropyl]-1,2,3,4-tetrahydroisoquinoline-3-carboxamide [Compound 12]	–	–	–	–	162	360 ± 63 nM	2.22 nM and 2.22 ± 0.47 nM	–	behaviour at the δ receptor (δ opioid receptor [9]): weak inverse agonist
(3R)-7-Fluoro-N-[(1S)-1-{[(3R,4R)-4-(3-Hydroxyphenyl)-3,4-dimethylpiperidine-1-yl]methyl}-2-methylpropyl]-1,2,3,4-tetrahydroisoquinoline-3-carboxamide [Compound 10]	–	–	–	–	3.5	7.7 ± 0.9 nM	2.20 ± 0.47 nM	–	behaviour at the δ receptor (δ opioid receptor [9]): weak inverse agonist
(3R)-N-[(1S)-1-{[(3R,4R)-3,4-Dimethyl-4-phenylpiperidin-1-yl]methyl}-2-methylpropyl]-1,2,3,4-tetrahydroisoquinoline-3-carboxamide [Compound 11]	–	–	–	>188	45	724 ± 146 nM	16 ± 7 nM	–	Ke δ, DPDPE (δ opioid receptor [9]): >3000 nM
(3R)-N-[(1S)-1-{[(3R,4R)-4-(3-Aminophenyl)-3,4-dimethylpiperidin-1-yl]methyl}-2-methylpropyl]-7-hydroxy-1,2,3,4-tetrahydroisoquinoline-3-carboxamide [Compound 8]	–	–	–	7600	42	10.6 nM and 10.6 ± 3.6 nM	0.25 ± 0.09 nM	1899 ± 657 nM	–
(3R)-N-[(1S)-1-{[(3R,4R)-4-(3-Bromophenyl)-3,4-dimethylpiperidin-1-yl]methyl}-2-methylpropyl]-7-hydroxy-1,2,3,4-tetrahydroisoquinoline-3-carboxamide [Compound 7]	–	–	–	2200	25	6.56 ± 0.44 nM	0.268 nM and 0.268 ± 0.01 nM	594 ± 160 nM	–
(3R)-N-[(1S)-1-{[(3R,4R)-4-(3-Chlorophenyl)-3,4-dimethylpiperidin-1-yl]methyl}-2-methylpropyl]-7-hydroxy-1,2,3,4-tetrahydroisoquinoline-3-carboxamide [Compound 6]	–	–	–	17600	175	6.81 ± 2.6 nM	0.039 ± 0.001 nM	685 ± 99 nM	–
(3R)-N-[(1S)-1-{[(3R,4R)-4-(3-Hydroxyphenyl)-3,4-dimethylpiperidin-1-yl]methyl}-2-methylpropyl]-7-1,2,3,4-tetrahydroisoquinoline-3-carboxamide [Compound 9]	–	–	–	37	3.7	16 ± 5 nM	4.3 ± 2 nM	158 nM and 158 ± 49 nM	–
(3R)-N^3-[(1S)-1-{[(3R,4R)-3,4-Dimethyl-4-phenylpiperidin-1-yl]methyl}-2-methylpropyl]-1,2,3,4-tetrahydroisoquinoline-3,7-dicarboxamide [Compound 15]	–	–	–	2700	163	6.70 ± 2.1 nM	0.041 ± 0.006 nM	111 ± 29 nM	–
